Measured values: BigSolDB 2.1

O=C(O)/C=C/c1ccccc1Cl
Settings	solubility (mole fraction)
in 2-butanone, 272.15 K	0.00431
in 2-butanone, 278.45 K	0.00535
in 2-butanone, 283.35 K	0.00626
in 2-butanone, 288.35 K	0.00733
in 2-butanone, 292.75 K	0.00837
in 2-butanone, 297.75 K	0.00968
in 2-butanone, 302.55 K	0.0111
in 2-butanone, 307.05 K	0.0126
in 2-butanone, 312.35 K	0.0145
in 2-butanone, 317.05 K	0.0164
in 2-butanone, 321.45 K	0.0183
in 2-pentanone, 272.15 K	0.00424
in 2-pentanone, 278.45 K	0.00526
in 2-pentanone, 283.35 K	0.00618
in 2-pentanone, 288.35 K	0.00723
in 2-pentanone, 292.75 K	0.00827
in 2-pentanone, 297.75 K	0.0096
in 2-pentanone, 302.55 K	0.011
in 2-pentanone, 307.05 K	0.0125
in 2-pentanone, 312.35 K	0.0144
in 2-pentanone, 317.05 K	0.0163
in 2-pentanone, 321.45 K	0.0182
in acetone, 272.15 K	0.00376
in acetone, 278.45 K	0.00474
in acetone, 283.35 K	0.00563
in acetone, 288.35 K	0.00668
in acetone, 292.75 K	0.00771
in acetone, 297.75 K	0.00907
in acetone, 302.55 K	0.0105
in acetone, 307.05 K	0.012
in acetone, 312.35 K	0.014
in acetone, 317.05 K	0.016
in acetone, 321.45 K	0.0181
in acetonitrile, 272.15 K	0.000253
in acetonitrile, 278.45 K	0.000362
in acetonitrile, 283.35 K	0.000474
in acetonitrile, 288.35 K	0.000617
in acetonitrile, 292.75 K	0.000773
in acetonitrile, 297.75 K	0.000994
in acetonitrile, 302.55 K	0.00125
in acetonitrile, 307.05 K	0.00154
in acetonitrile, 312.35 K	0.00195
in acetonitrile, 317.05 K	0.0024
in acetonitrile, 321.45 K	0.00289
in ethanol, 272.15 K	0.00229
in ethanol, 278.45 K	0.00295
in ethanol, 283.45 K	0.0036
in ethanol, 288.35 K	0.00431
in ethanol, 292.85 K	0.00508
in ethanol, 298.15 K	0.00614
in ethanol, 302.95 K	0.00722
in ethanol, 307.35 K	0.00833
in ethanol, 312.05 K	0.00969
in ethanol, 316.55 K	0.0112
in ethanol, 321.55 K	0.013
in ethyl acetate, 272.15 K	0.00231
in ethyl acetate, 278.45 K	0.00294
in ethyl acetate, 283.35 K	0.00351
in ethyl acetate, 288.35 K	0.00417
in ethyl acetate, 292.75 K	0.00484
in ethyl acetate, 297.75 K	0.00571
in ethyl acetate, 302.55 K	0.00665
in ethyl acetate, 307.05 K	0.00764
in ethyl acetate, 312.35 K	0.00894
in ethyl acetate, 317.05 K	0.0102
in ethyl acetate, 321.45 K	0.0116
in ethyl formate, 272.15 K	0.000925
in ethyl formate, 278.45 K	0.00124
in ethyl formate, 283.35 K	0.00155
in ethyl formate, 288.35 K	0.00193
in ethyl formate, 292.75 K	0.00232
in ethyl formate, 297.75 K	0.00285
in ethyl formate, 302.55 K	0.00345
in ethyl formate, 307.05 K	0.0041
in ethyl formate, 312.35 K	0.00497
in ethyl formate, 317.05 K	0.0059
in ethyl formate, 321.45 K	0.00688
in isobutanol, 272.15 K	0.0013
in isobutanol, 278.45 K	0.00167
in isobutanol, 283.45 K	0.00211
in isobutanol, 288.35 K	0.00266
in isobutanol, 292.85 K	0.00324
in isobutanol, 298.15 K	0.00403
in isobutanol, 302.95 K	0.00489
in isobutanol, 307.35 K	0.00591
in isobutanol, 312.05 K	0.00724
in isobutanol, 316.55 K	0.00855
in isobutanol, 321.55 K	0.0106
in isopentanol, 272.15 K	0.00208
in isopentanol, 278.45 K	0.00259
in isopentanol, 283.45 K	0.00322
in isopentanol, 288.35 K	0.00396
in isopentanol, 292.85 K	0.00475
in isopentanol, 298.15 K	0.0058
in isopentanol, 302.95 K	0.00691
in isopentanol, 307.35 K	0.00821
in isopentanol, 312.05 K	0.00988
in isopentanol, 316.55 K	0.0115
in isopentanol, 321.55 K	0.014
in isopropanol, 272.15 K	0.00181
in isopropanol, 278.45 K	0.00245
in isopropanol, 283.45 K	0.00309
in isopropanol, 288.35 K	0.00385
in isopropanol, 292.85 K	0.00468
in isopropanol, 298.15 K	0.00585
in isopropanol, 302.95 K	0.00712
in isopropanol, 307.35 K	0.00848
in isopropanol, 312.05 K	0.0101
in isopropanol, 316.55 K	0.012
in isopropanol, 321.55 K	0.0144
in methanol, 272.15 K	0.00174
in methanol, 278.45 K	0.00224
in methanol, 283.45 K	0.00273
in methanol, 288.35 K	0.00328
in methanol, 292.85 K	0.00387
in methanol, 298.15 K	0.00465
in methanol, 302.95 K	0.00549
in methanol, 307.35 K	0.0064
in methanol, 312.05 K	0.00739
in methanol, 316.55 K	0.00857
in methanol, 321.55 K	0.01
in methyl acetate, 272.15 K	0.00189
in methyl acetate, 278.45 K	0.00244
in methyl acetate, 283.35 K	0.00296
in methyl acetate, 288.35 K	0.00358
in methyl acetate, 292.75 K	0.00422
in methyl acetate, 297.75 K	0.00505
in methyl acetate, 302.55 K	0.00596
in methyl acetate, 307.05 K	0.00694
in methyl acetate, 312.35 K	0.00823
in methyl acetate, 317.05 K	0.00956
in methyl acetate, 321.45 K	0.0109
in n-butanol, 272.15 K	0.00231
in n-butanol, 278.45 K	0.00288
in n-butanol, 283.45 K	0.00356
in n-butanol, 288.35 K	0.00438
in n-butanol, 292.85 K	0.00522
in n-butanol, 298.15 K	0.00636
in n-butanol, 302.95 K	0.00757
in n-butanol, 307.35 K	0.00895
in n-butanol, 312.05 K	0.0107
in n-butanol, 316.55 K	0.0124
in n-butanol, 321.55 K	0.0151
in n-pentanol, 272.15 K	0.00268
in n-pentanol, 278.45 K	0.0033
in n-pentanol, 283.45 K	0.00404
in n-pentanol, 288.35 K	0.00491
in n-pentanol, 292.85 K	0.00583
in n-pentanol, 298.15 K	0.00704
in n-pentanol, 302.95 K	0.00832
in n-pentanol, 307.35 K	0.00977
in n-pentanol, 312.05 K	0.0116
in n-pentanol, 316.55 K	0.0134
in n-pentanol, 321.55 K	0.0162
in n-propanol, 272.15 K	0.00202
in n-propanol, 278.45 K	0.00267
in n-propanol, 283.45 K	0.00332
in n-propanol, 288.35 K	0.00408
in n-propanol, 292.85 K	0.0049
in n-propanol, 298.15 K	0.00602
in n-propanol, 302.95 K	0.00723
in n-propanol, 307.35 K	0.00848
in n-propanol, 312.05 K	0.01
in n-propanol, 316.55 K	0.0117
in n-propanol, 321.55 K	0.0139
in toluene, 272.15 K	0.000149
in toluene, 278.45 K	0.000225
in toluene, 283.35 K	0.000307
in toluene, 288.35 K	0.000415
in toluene, 292.75 K	0.000538
in toluene, 297.75 K	0.000716
in toluene, 302.55 K	0.000932
in toluene, 307.05 K	0.00119
in toluene, 312.35 K	0.00156
in toluene, 317.05 K	0.00197
in toluene, 321.45 K	0.00246
